{
  "source": "patent US8822640B2",
  "about": "“Tetrameric streptavidin mutein with reversible biotin binding capability” (UTI Limited Partnership, priority 2011, dated 2014)",
  "key": {"[1]": {"assay": "BIAcore biosensor kinetic parameters of biotin binding in streptavidin muteins", "settings": "for ka or kon / kd or koff / Kd: BIAcore, biotinylated IgG on chip, mutein injected; for t1/2, half-life of biotin in the SAV-biotin complex: estimated as 0.693/koff/60; for Kd: read-out: Kd (biotin binding affinity)", "method": "The kinetic parameters for these muteins were determined using the BIAcore biosensor. Biotinylated IgG proteins were immobilized to the sensor chip and purified streptavidin muteins were injected to determine the binding properties:\n(§1) Other methods. BIAcore biosensor for determining the kinetic parameters, preparation of streptavidin-agarose matrix and purification of biotinylated proteins were performed as previously described (Wu and Wong, 2005a; Wu and Wong, 2005b)."}, "[2]": {"assay": "Binding to biotin-agarose, elution with 4 mM biotin, rebinding after dialysis", "method": "In order to characterize these muteins, it is essential to purify each of these muteins for further analyses. […] After dialysis to remove any biotin from the pooled elution fraction, the purified muteins could rebind to the biotin-agarose matrix and could be eluted off again by 4 mM biotin in the buffer. This indicates the reversible biotin binding capability in these muteins.\nProduction and affinity purification of streptavidin muteins. Bacillus subtilis cells carrying the expression vectors were cultivated in super-rich medium (Wu et al., 2002) at 30° C. for 9-12 hours. Culture supernatant was collected by centrifugation and streptavidin muteins were affinity purified using biotin-agarose as described previously (Wu and Wong, 2005a).\nBound biotin in the 8-aa-loop-H127C mutein can be removed by dialysis. Purified 8-aa-loop-H127C muteins eluted from the biotin agarose by 4 mM biotin will contain bound biotin. If biotin binding is reversible, bound biotin should be removable by dialysis. Indeed, the dialyzed 8-aa-loop-H127C muteins could rebind to the biotin-agarose column and could be eluted off from the column by 4 mM biotin in the elution buffer (FIG. 5). […] Some 8-aa-loop-H127C mutein molecules could be observed in the flow-through fraction. This is probably because of overloading the column with excess muteins."}, "[3]": {"system": "biotinylated protein G and biotinylated IgG", "assay": "Mutein-agarose affinity matrix: purification of biotinylated proteins, matrix stability and reuse", "settings": "comparison of FIGS. 7 and 10", "method": "as §1\nStable subunit interactions in the 8-aa-loop-H127 mutein. The purified 8-aa-loop-H127C mutein can be immobilized to the agarose matrix with an estimated concentration of 3.8 mg/ml of settled agarose beads. […] Since it is likely that only one subunit in an tetrameric 8-aa-loop-H127C mutein was chemically coupled to the matrix (the other three subunits associated with the immobilized subunit via non-covalent interactions), this observation illustrates that the subunit interactions between the subunits in the tetrameric 8-aa-loop-H127C mutein were stable enough and the non-covalently associated subunits were not washed off from the column under the conditions used for the binding, washing and elution processes.\nApplication of the 8-aa-loop-H127C mutein-agarose matrices for purification of biotinylated protein G and biotinylated IgG. […] The bound biotinylated proteins could be eluted off from the column using 4 mM biotin (FIGS. 7 and 8)."}, "[4]": {"assay": "Ligand energy inspector, Molegro molecular viewer (MolDock score), biotin binding pocket of subunit A", "method": "Replacement of residues in loop7-8 of the wild-type streptavidin results in allowing loop7-8 to become flexible and changing the relative orientation of subunits in the tetrameric structure. These structural changes lead to lowering of the biotin binding affinity in the 8-aa-loop-H127C mutein. The strength of biotin interaction with streptavidin was analyzed using the ligand energy inspector function in the Molegro molecular viewer program (Thomsen and Christensen, 2006). The more the negative value indicates the stronger interaction. […] In reference to the wild-type streptavidin, a few residues in the 8-aa-loop-H127C mutein have a little bit stronger interactions with biotin (data not shown). However, the net outcome is that the 8-aa-loop-H127C mutein has a weaker biotin binding affinity."}, "[5]": {"settings": "literature values, cited from earlier work"}, "[6]": {"settings": "known value, cited from earlier work"}},
  "note": "Entries after “also recorded” stand apart in the source; their conditions may differ. Read-outs that look alike come from different tables or passages of the source.",
  "data": [
    {"substance": "6-aa-loop mutein: streptavidin mutein with engineered loop7-8 D S N G S G (SEQ ID NO: 16) (DSNGSG; listed as Bacillus subtilis)", "values": [
      {"measurement": "ka or kon", "setting": "[1]", "value": 24300, "unit": "M⁻¹ s⁻¹"},
      {"measurement": "kd or koff", "setting": "[1]", "value": "7.59e-05", "unit": "s⁻¹"},
      {"measurement": "t1/2, half-life of biotin in the SAV-biotin complex", "setting": "[1]", "value": 152, "unit": "min"}
    ]},
    {"substance": "8-aa-loop-H127C mutein: tetrameric streptavidin mutein, loop7-8 replaced by D S S N G S D G, with H127C mutation (SEQ ID NO: 14) (DSSNGSDG; listed as Bacillus subtilis)", "values": [
      {"measurement": "reversible biotin binding", "setting": "[2]", "value": "can bind to biotin-agarose and can be eluted off from the matrix by 4 mM biotin; also recorded: biotin binds to this protein in a reversible manner"},
      {"measurement": "ka or kon", "setting": "[1]", "value": 22100, "unit": "M⁻¹ s⁻¹"},
      {"measurement": "kd or koff", "setting": "[1]", "value": 0.000428, "unit": "s⁻¹"},
      {"measurement": "Kd", "setting": "[1]", "value": 19, "unit": "nM"},
      {"measurement": "t1/2, half-life of biotin in the SAV-biotin complex", "setting": "[1]", "value": 27, "unit": "min"},
      {"measurement": "binding capacity of the matrix for biotinylated protein G", "setting": "[3]", "value": "much better binding capacity than the matrix with the Roche streptavidin mutein"},
      {"measurement": "Difference (wild-type − mutein), Asn 23", "setting": "[4]; residue contribution", "value": "−1.1"},
      {"measurement": "Difference (wild-type − mutein), Asp128", "setting": "[4]; residue contribution", "value": "−3.3"},
      {"measurement": "Difference (wild-type − mutein), Leu 25", "setting": "[4]; residue contribution", "value": "−0.8"},
      {"measurement": "Difference (wild-type − mutein), Lys 121 (from subunit D)", "setting": "[4]; residue contribution", "value": "−1.3"},
      {"measurement": "Difference (wild-type − mutein), Ser 45", "setting": "[4]; residue contribution", "value": "−1.4"},
      {"measurement": "Difference (wild-type − mutein), Trp 120 (from subunit D)", "setting": "[4]; residue contribution", "value": "−10.5"},
      {"measurement": "Difference (wild-type − mutein), MolDock score", "setting": "[4]; total", "value": "−14.4"}
    ]},
    {"substance": "W120A mutein: streptavidin mutein with Trp-120 changed to alanine [reference compound]", "values": [
      {"measurement": "Kd", "setting": "[5]; read-out: dissociation constant (Kd) for biotin", "value": 3, "unit": "nM"}
    ]},
    {"substance": "Wild-type streptavidin: 52,800 dalton tetrameric protein from Streptomyces avidinii, SEQ ID NO:1", "values": [
      {"measurement": "isoelectric point (pI)", "setting": "[6]", "value": "~5"},
      {"measurement": "isoelectric point (pI)", "setting": "[6]; listed as natural streptavidin", "value": "5-6"},
      {"measurement": "dissociation constant (Kd) for biotin", "setting": "[5]", "value": "10^−13 to 10^−14 M"}
    ]},
    {"substance": "ΔWHC: streptavidin mutein with Trp-120 deleted (loop T T E A N A K) and H127C mutation (SEQ ID NO: 13) (TTEANAK; listed as Bacillus subtilis)", "values": [
      {"measurement": "ka or kon", "setting": "[1]", "value": 49600, "unit": "M⁻¹ s⁻¹"},
      {"measurement": "kd or koff", "setting": "[1]", "value": 0.0004, "unit": "s⁻¹"},
      {"measurement": "Kd", "setting": "[1]; listed as ΔW-HC", "value": 8.1, "unit": "nM"},
      {"measurement": "Kd", "setting": "[1]", "value": "~1", "unit": "nM"},
      {"measurement": "t1/2, half-life of biotin in the SAV-biotin complex", "setting": "[1]", "value": 28.9, "unit": "min"}
    ]}
  ]
}
